Assay results: US20030088077A1, “Metal chelated dyestuff for inkjet recording and aqueous inkjet recording liquid using the same” (MITSUBISHI CHEMICAL CORPORATION, priority 1999, published 2003)

Columns and labels:
[1] = Indoor discoloring and fading property of a printed image (ozone resistance); assay type: physicochemical; details: ozone concentration 3 ppm, humidity 50 to 60%, 2 hours, light-shielded; specialized photoprint paper
Description: (b) Indoor discoloring and fading property of a printed image (ozone resistance):
In a light-shielded tank having an ozone concentration of 3 ppm, a printed matter was left on standing under a humidity of 50 to 60% for 2 hours, and the degree of discoloring and fading before and after the standing was measured by Macbeth densitometer (Gretag Macbeth SPM50, manufactured by Macbeth), and quantified as the form of a ΔE value. In the case of the specialized photoprint paper, a good result was obtained at the above measurement wherein the ΔE value was 11.2.

[2] = Light resistance of a recorded image (xenon fade-meter); assay type: physicochemical; details: 150 to 160 kJ/m^2 for 80 hours, specialized photoprint paper, larger value = more fading
Description: (a) Light resistance of a recorded image:
Using a xenon fade-meter (manufactured by Atlas), a recording paper was irradiated at an irradiation energy of 150 to 160 kJ/m^2 for 80 hours, and the degree of discoloring and fading before and after the irradiation was measured by Macbeth densitometer (Gretag Macbeth SPM50, manufactured by Macbeth), and quantified as the form of a ΔE value. Incidentally, the ΔE value is a numerical value expressing the degree of discoloring and fading. That is, the larger the value is, the larger the degree of discoloring and fading is and the lower the light fastness of the image is. In the case of the specialized photoprint paper, a good result was obtained at the above measurement wherein the ΔE value was 2.1.

N#Cc1nc(/N=N/c2ccc(N(CCC(=O)[O-])CCC(=O)[O-])cc2N)[nH]c1C#N.[Na+].[Na+] [Comparative dyestuff b]
Indoor discoloring & fading property (ΔE) [1]: 4.3
Light resistance (ΔE) [2]: 7.0
